Laboratory results taken from ChEMBL document CHEMBL3994674, “Toward Resolving the Resveratrol Conundrum: Synthesis and in Vivo Pharmacokinetic Evaluation of BCP-Resveratrol” (ACS Med Chem Lett, 2017).
≈ marks a conversion by molar mass, not a printed value.

Assays:
[1] = Drug level in human hepatocytes treated with resveratrol at 5 uM by LC-MS/MS analysis; assay type: ADME, cell-based, Hepatocyte
MDA-MB-231 [2] = experiment: Cytotoxicity against human MDA-MB-231 cells assessed as growth inhibition at 30 uM after 72 hrs by CellTitre-Glo luminescent assay relative to control; assay type: functional; conditions: MDA-MB-231, 72 h, read-out: GI
[3] = Cmax in CD rat at 50 mg/kg/day, po administered via gavage every 24 hrs for 14 consecutive days measured on day 1 post dose by HPLC-MS analysis; assay type: ADME, organism-based; design: dose 50 mg/kg/day, route oral; conditions: in vivo
[4] = Octanol/phosphate buffer partition co-efficient, log D of the compound at 75 uM at pH 7.4 after 2 hrs by LC-Ms/MS based shake-flask method; assay type: physicochemical
[5] = Tmax in Wistar rat at 20 mg/kg, po by HPLC-MS analysis; assay type: ADME, organism-based; conditions: in vivo
[6] = Half life in human hepatocytes at 5 uM by LC-MS/MS analysis; assay type: ADME, cell-based, Hepatocyte
[7] = Drug metabolism in human hepatocytes assessed as resveratrol-sulfate formation at 5 uM by LC-MS/MS analysis; assay type: ADME, cell-based, Hepatocyte
[8] = Drug metabolism in human hepatocytes assessed as resveratrol-glucuronide formation at 5 uM by LC-MS/MS analysis; assay type: ADME, cell-based, Hepatocyte
[9] = Apparent intrinsic clearance in human hepatocytes assessed per million cells at 5 uM by LC-MS/MS analysis; assay type: ADME, cell-based, Hepatocyte
SU-DHL10 [10] = experiment: Cytotoxicity against human SU-DHL10 cells assessed as growth inhibition at 30 uM after 72 hrs by CellTitre-Glo luminescent assay relative to control; assay type: functional; conditions: SU-DHL10, 72 h, read-out: GI
[11] = Cmax in CD rat at 50 mg/kg/day, po administered via gavage every 24 hrs for 14 consecutive days measured on day 14 post dose by HPLC-MS analysis; assay type: ADME, organism-based; design: dose 50 mg/kg/day, route oral; conditions: in vivo
[12] = Apparent intrinsic clearance in rat hepatocytes assessed per million cells at 5 uM by LC-MS/MS analysis; assay type: ADME, cell-based, Hepatocyte
[13] = Half life in Wistar rat at 20 mg/kg, po by HPLC-MS analysis; assay type: ADME, organism-based; conditions: in vivo
MIA PaCa-2 [14] = experiment: Cytotoxicity against human MIAPaCa2 cells assessed as growth inhibition at 30 uM after 72 hrs by CellTitre-Glo luminescent assay relative to control; assay type: functional; conditions: MIA PaCa-2, 72 h, read-out: GI
[15] = AUC (0 to last) in Wistar rat at 20 mg/kg, po by HPLC-MS analysis; assay type: ADME, organism-based; design: dose 20 mg/kg, time 0 - last, route oral; conditions: in vivo
[16] = Thermodynamic solubility in pH 7.4 PBS at 10 mg/ml after 1 hr by LC-Ms/MS based shake flask method; assay type: physicochemical; conditions: read-out: Therm_solubility
[17] = Apparent clearance in Wistar rat at 20 mg/kg, po by HPLC-MS analysis; assay type: ADME, organism-based; conditions: in vivo
[18] = Cmax in Wistar rat at 20 mg/kg, po by HPLC-MS analysis; assay type: ADME, organism-based; design: dose 20 mg/kg, route oral; conditions: in vivo
[19] = Half life in rat hepatocytes at 5 uM by LC-MS/MS analysis; assay type: ADME, cell-based, Hepatocyte
SU-DHL10 [20] = experiment: Cytotoxicity against human SU-DHL10 cells assessed as growth inhibition after 72 hrs by CellTitre-Glo luminescent assay; assay type: functional; conditions: SU-DHL10, 72 h
MDA-MB-231 [21] = experiment: Cytotoxicity against human MDA-MB-231 cells assessed as growth inhibition after 72 hrs by CellTitre-Glo luminescent assay; assay type: functional; conditions: MDA-MB-231, 72 h
MIA PaCa-2 [22] = experiment: Cytotoxicity against human MIAPaCa2 cells assessed as growth inhibition after 72 hrs by CellTitre-Glo luminescent assay; assay type: functional; conditions: MIA PaCa-2, 72 h
[23] = Plasma concentration in Sprague-Dawley rat at 20 mg/kg, po administered as single dose via gavage up to 4 hrs by HPLC-MS analysis; assay type: ADME, organism-based
[24] = Apparent clearance in Sprague-Dawley rat at 20 mg/kg, po administered as single dose via gavage by HPLC-MS analysis; assay type: ADME, organism-based; conditions: in vivo
[25] = Tmax in Sprague-Dawley rat at 20 mg/kg, po administered as single dose via gavage by HPLC-MS analysis; assay type: ADME, organism-based; conditions: in vivo
[26] = Cmax in Sprague-Dawley rat at 20 mg/kg, po administered as single dose via gavage after 5 mins by HPLC-MS analysis; assay type: ADME, organism-based; design: dose 20 mg/kg, route oral; conditions: in vivo
[27] = AUC (0 to last) in Sprague-Dawley rat at 20 mg/kg, po administered as single dose via gavage after 4 hrs by HPLC-MS analysis; assay type: ADME, organism-based; design: dose 20 mg/kg, route oral, time 0 - last; conditions: in vivo
[28] = Half life in Sprague-Dawley rat at 20 mg/kg, po administered as single dose via gavage by HPLC-MS analysis; assay type: ADME, organism-based; conditions: in vivo

Q: For `O=S(=O)(O)Oc1ccc(/C=C/c2cc(O)cc(O)c2)cc1`, which Drug metabolism [1] is on record?
A: The Drug metabolism was “Metabolite_Detected”.

Q: Which results are given for `Oc1ccc(/C=C/c2cc(O)cc(O)c2)cc1` [RESVERATROL]?
A: inhibition of growth at 30 µM (MDA-MB-231 [2]): 20%; Cmax [3]: 76.7 ng/mL; logD at 2 h, 75 µM [4]: 2.9; Tmax [5]: 4.98 min; half-life at 5 µM [6]: 23.2 min; Drug metabolism [7]: Metabolite_Detected; Drug metabolism [8]: Metabolite_Detected; CLH(app) [9]: 29.9 µL/min; inhibition of growth at 30 µM (SU-DHL10 [10]): 46%; Cmax [11]: 176 ng/mL; CLH(app) [12]: > 184.8 µL/min; half-life [13]: 11.4 min; inhibition of growth at 30 µM (MIA PaCa-2 [14]): 30%; AUC(0-t) [15]: 47.5 ng·h/mL; solubility thermodynamic at 1 h [16]: 19 µg/mL (≈ 83.2 µM); CL/F [17]: 409 L/h/kg; Cmax [18]: 273 ng/mL; half-life at 5 µM [19]: < 7.5 min

Q: With `COc1ccc(C[C@H](N)C(=O)N[C@H]2[C@@H](O)[C@H](n3cnc4c(N(C)C)ncnc43)O[C@@H]2CO)cc1` [PUROMYCIN] as the compound, how does the CC50 (SU-DHL10 [20]) read?
A: The CC50 was 110 nM.

Q: And the CC50 (MDA-MB-231 [21])?
A: The CC50 was 480 nM.

Q: And the CC50 (MIA PaCa-2 [22])?
A: Its CC50 is 200 nM.

Q: With `O=C(O)[C@H]1O[C@@H](Oc2ccc(/C=C/c3cc(O)cc(O)c3)cc2)[C@H](O)[C@@H](O)[C@@H]1O` as the compound, how does the Drug metabolism [1] read?
A: The Drug metabolism was “Metabolite_Detected”.

Q: For `Oc1cc(O)cc(/C=C/C23CC(O)(C2)C3)c1`, which inhibition of growth at 30 µM (MDA-MB-231 [2]) is on record?
A: Its inhibition of growth at 30 µM is 22%.

Q: And the concentration at 4 h [23]?
A: Its concentration at 4 h is 85 ng/mL.

Q: And the logD at 2 h, 75 µM [4]?
A: The logD at 2 h, 75 µM was 1.9.

Q: What about the CL/F [24] of the same compound?
A: The CL/F was 21.8 L/h/kg.

Q: And the Tmax [25]?
A: Its Tmax is 4.02 min.

Q: What about the half-life at 5 µM [6] of the same compound?
A: Its half-life at 5 µM is 90.4 min.

Q: And the Cmax [26]?
A: Its Cmax is 942 ng/mL.

Q: What about the AUC(0-t) at 4 h [27] of the same compound?
A: The AUC(0-t) at 4 h was 587 ng·h/mL.

Q: And the “CLH(app)” value [9]?
A: The value was 7.7 µL/min.

Q: And the inhibition of growth at 30 µM (SU-DHL10 [10])?
A: Its inhibition of growth at 30 µM is 41%.

Q: What about the “CLH(app)” value [12] of the same compound?
A: Its value is 57.4 µL/min.

Q: And the inhibition of growth at 30 µM (MIA PaCa-2 [14])?
A: The inhibition of growth at 30 µM was 30%.

Q: And the half-life [28]?
A: The half-life was 156 min.

Q: And the solubility thermodynamic at 1 h [16]?
A: The solubility thermodynamic at 1 h was 619 µg/mL (≈ 2840 µM).

Q: What about the half-life at 5 µM [19] of the same compound?
A: Its half-life at 5 µM is 24.2 min.
